# Test results as given in patent US11149013B2, “Crystal form of urate transporter 1 inhibitor and preparation method and use thereof” (Tianjin Institute of Pharmaceutical Research Co., Ltd., priority 2018, dated 2021).
# Key:
# Assay type in all cases: physicochemical
# [1] = Influencing factor test: stability to light; details: illumination 5000 Lx·hr, open weighing bottle
# Description: (§1) The HPLC conditions for the determination of the crystal form A of the compound TY706 and its raw material in the present invention were as follows: chromatographic column: C18, 5 μu, Φ4.6×150 mm, Waters Atlantis T3; mobile phase A: acetonitrile-methanol=9:1, mobile phase B: 10 mM diammonium hydrogen phosphate (pH was adjusted to 4.30±0.03 with phosphoric acid), gradient elution (Table 2); detection wavelength: 225 nm; column temperature: 35° C.; flow rate: 1.0 mL/min; sample concentration: 0.3 mg/mL; injection volume: 15 μL; solvent for dissolving: phosphate buffer (pH 7.8-8.0; prepared by dissolving 5.59 g of dipotassium hydrogen phosphate and 0.41 g of potassium dihydrogen phosphate by adding water to a volume of 1000 mL).
# (§2) The sample of the crystal form A of TY706 prepared in Example 1 and the raw material for the preparation of the crystal form A were simultaneously subjected to influencing factor tests, and they were respectively placed under the conditions of illumination (5000 Lx·hr, with the weighing bottle being placed open), high heat (60° C., with the weighing bottle being placed open), and high humidity (92.5% RH, with the weighing bottle being placed open) for 14 days, and the appearance and the number and total amount of impurities (determined by HPLC) were compared with those measured on day 0, and the results are shown in Table 5-7.
# [2] = Influencing factor test: stability to high heat; details: high heat 60° C., open weighing bottle
# Description: as §1, §2
# [3] = Influencing factor test: stability to high humidity; details: high humidity 92.5% RH, open weighing bottle
# Description: as §1, §2
SMILES,Appearance ([1]; day 0),"Number of impurities ([1]; day 0, HPLC)","Total amount of impurities ([1]; day 0, HPLC) [%]",Appearance ([1]; day 7),"Number of impurities ([1]; day 7, HPLC)","Total amount of impurities ([1]; day 7, HPLC) [%]",Appearance ([1]; day 14),"Number of impurities ([1]; day 14, HPLC)","Total amount of impurities ([1]; day 14, HPLC) [%]",Appearance ([2]; day 0),"Number of impurities ([2]; day 0, HPLC)","Total amount of impurities ([2]; day 0, HPLC) [%]",Appearance ([2]; day 7),"Number of impurities ([2]; day 7, HPLC)","Total amount of impurities ([2]; day 7, HPLC) [%]",Appearance ([2]; day 14),"Number of impurities ([2]; day 14, HPLC)","Total amount of impurities ([2]; day 14, HPLC) [%]",Appearance ([3]; day 0),"Number of impurities ([3]; day 0, HPLC)",other results
O=C(O)CSc1nnc(Br)n1Cc1ccc(Br)c2ccccc12 [Crystal form A of TY706],White solid,4,0.24,White solid,6,0.28,White solid,7,0.41,White solid,4,0.24,White solid,4,0.25,White solid,5,0.26,White solid,4,"Total amount of impurities ([3]; day 0, HPLC): 0.24%; Appearance ([3]; day 7): White solid; Number of impurities ([3]; day 7, HPLC): 4; Total amount of impurities ([3]; day 7, HPLC): 0.24%; Appearance ([3]; day 14): White solid; Number of impurities ([3]; day 14, HPLC): 4; Total amount of impurities ([3]; day 14, HPLC): 0.25%"
O=C(O)CSc1nnc(Br)n1Cc1ccc(Br)c2ccccc12 [TY706 raw material],White solid,11,0.69,White solid,13,1.13,Light yellow,25,2.68,White solid,11,0.69,White solid,12,0.78,White solid,15,1.19,White solid,11,"Total amount of impurities ([3]; day 0, HPLC): 0.69%; Appearance ([3]; day 7): White solid; Number of impurities ([3]; day 7, HPLC): 12; Total amount of impurities ([3]; day 7, HPLC): 0.72%; Appearance ([3]; day 14): White solid; Number of impurities ([3]; day 14, HPLC): 14; Total amount of impurities ([3]; day 14, HPLC): 0.84%"
